The structures appear in SMILES notation. Converted amounts (≈) assume the structure as drawn. Some results are limits rather than exact numbers.

A short description of series [1]: Partition coefficient (logD). It counts as physicochemical. Conditions: octanol/water.
In series [2] the target is Matrix metalloproteinase-9 (Homo sapiens, UniProt P14780). Description: Inhibition of human gelatinase B, MMP9.
The next series deals with Stromelysin-1 (Homo sapiens, UniProt P08254). Put plainly: Inhibition of human stromelysin-1, MMP-3.
Sequence of Stromelysin-1 (P08254 whole entry): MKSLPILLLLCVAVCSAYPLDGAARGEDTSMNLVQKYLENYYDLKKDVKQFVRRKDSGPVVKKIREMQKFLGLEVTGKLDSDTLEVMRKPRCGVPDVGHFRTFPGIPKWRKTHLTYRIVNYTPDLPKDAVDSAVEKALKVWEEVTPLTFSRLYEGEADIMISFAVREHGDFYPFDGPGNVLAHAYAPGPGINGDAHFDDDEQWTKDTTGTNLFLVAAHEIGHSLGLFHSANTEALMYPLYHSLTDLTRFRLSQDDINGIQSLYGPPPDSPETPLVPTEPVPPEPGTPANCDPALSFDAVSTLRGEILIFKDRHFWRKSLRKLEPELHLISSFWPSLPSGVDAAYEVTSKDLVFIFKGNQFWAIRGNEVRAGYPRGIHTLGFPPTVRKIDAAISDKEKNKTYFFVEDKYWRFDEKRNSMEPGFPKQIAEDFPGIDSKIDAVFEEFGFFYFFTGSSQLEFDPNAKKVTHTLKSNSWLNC
Another series concerns the target Collagenase. Put plainly: Inhibition of human collagenase (MMP1). The class given is protein assay.
Series [3] is described as follows: Solubility was determined. It counts as physicochemical.
For a further series, the species on record is Bos taurus. Description: Effective activity in protecting bovine nasal cartilage explants against degradation induced by interleukin 1-alpha in efficacy experiments in vitro. It counts as functional.
Series [4] in a line: Oral bioavailability in rat. The conditions noted are these: in vivo. The class given is ADME, organism-based.

Sequence of Matrix metalloproteinase-9 (P14780 whole entry): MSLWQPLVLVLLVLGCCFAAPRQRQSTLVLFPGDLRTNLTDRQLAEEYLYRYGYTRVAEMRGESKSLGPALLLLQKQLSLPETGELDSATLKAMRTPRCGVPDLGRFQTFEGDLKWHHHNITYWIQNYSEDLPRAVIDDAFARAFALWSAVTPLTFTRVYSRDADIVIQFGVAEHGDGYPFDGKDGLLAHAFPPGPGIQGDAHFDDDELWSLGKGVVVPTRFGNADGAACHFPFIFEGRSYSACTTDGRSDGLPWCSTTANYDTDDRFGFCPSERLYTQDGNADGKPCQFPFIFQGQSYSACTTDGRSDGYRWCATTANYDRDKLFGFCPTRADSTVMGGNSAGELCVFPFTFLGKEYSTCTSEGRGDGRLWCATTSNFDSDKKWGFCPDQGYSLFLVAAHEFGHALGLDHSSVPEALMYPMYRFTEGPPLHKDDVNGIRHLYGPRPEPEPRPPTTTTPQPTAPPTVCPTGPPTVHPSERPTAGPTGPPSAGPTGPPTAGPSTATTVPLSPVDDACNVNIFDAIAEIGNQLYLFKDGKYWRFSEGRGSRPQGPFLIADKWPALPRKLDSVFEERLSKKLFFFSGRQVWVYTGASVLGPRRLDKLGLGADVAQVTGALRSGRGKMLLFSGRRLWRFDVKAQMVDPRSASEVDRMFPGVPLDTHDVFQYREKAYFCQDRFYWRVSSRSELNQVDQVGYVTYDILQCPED

The term logD denotes the decadic logarithm of the distribution of all forms, ionised or not, between an organic phase and buffer at a given pH. As a reminder, the IC50 is the point on the concentration scale where inhibition reaches its midpoint. Read a low IC50 as inhibition by little substance. The term solubility denotes the concentration that dissolves in the medium under given conditions. Read a low solubility as a poorly soluble substance. In general, bioavailability refers to the share of a dose that reaches the circulation, judged against a reference dose that is usually intravenous. In the case of `CC(C)C[C@@H](C(=O)N1CCCCC1)[C@@H](CN1C(=O)N(C)C(C)(C)C1=O)C(=O)NO`, the logD in series [1] turned out to be 0.6. In addition, the IC50 in series [2] was 0.237 µM; against Stromelysin-1 it was 2.18 µM; against Collagenase, 0.0101 µM; in the series filed under Bos taurus, < 0.1 µM. Also, the solubility in series [3] was > 100 mg/mL. The molecule also returned a bioavailability in series [4] of 30%.

With `CNC(=O)[C@H](NC(=O)[C@@H](CC(=O)NO)CC(C)C)C(C)(C)C`, the IC50 in series [2] worked out at 0.0104 µM; on Stromelysin-1, 0.16 µM; at Collagenase, 0.0049 µM. In addition, in series [3], the concentration in solution (solubility) came to 0.8 mg/mL (≈ 2.54 mM). In series [4], this molecule registered a bioavailability of 3%.

Regarding `CN1C(=O)N(C[C@@H](C(=O)NO)[C@@H](CC2CCCC2)C(=O)N2CCCCC2)C(=O)C1(C)C`, the logD in series [1] was determined as 0.6. For the same molecule, the IC50 in series [2] was 0.059 µM; in the series listed under Bos taurus, < 0.1 µM. The solubility in series [3] was determined as 73 mg/mL (≈ 167 mM). The same molecule returned a bioavailability in series [4] of 25%.

`CNC(=O)[C@H](NC(=O)[C@H](CC(C)C)[C@@H](C)C(=O)NO)C(C)(C)C`: the results for the IC50 (in series [2]; on Stromelysin-1; on Collagenase) were 0.0024 µM, 0.047 µM and 0.0026 µM, respectively. In addition, the bioavailability in series [4] was determined as 2.7%.

As for `CNC(=O)[C@H](NC(=O)[C@H](CC(C)C)[C@@H](CN1C(=O)c2ccccc2C1=O)C(=O)NO)C(C)(C)C`, the results for the half-inhibitory concentration (IC50) (in series [2]; on Stromelysin-1) were 0.0043 µM and 0.0091 µM, respectively. In series [4], this molecule yielded a bioavailability of 1%.

Regarding `CNC(=O)[C@H](NC(=O)C(CC(C)C)C(CN1C(=O)N(C)C(C)(C)C1=O)C(=O)NO)C(C)(C)C` (single isomer, unassigned), the half-maximal inhibitory concentration (IC50) worked out at 0.0028 µM in series [2] and 0.001 µM on Collagenase. In addition, the bioavailability in series [4] is 1.5%.

The values above are taken from ChEMBL document CHEMBL1130523, “Design and synthesis of the cartilage protective agent (CPA, Ro32-3555)” (Bioorg Med Chem Lett, 1997).
